The values below come from patent publication US8828674B2, “Functional identification of proteins underlying Icrac activity in a cell” (The Queen's Medical Center, priority 2007, dated 2014).

SMILES strings stand for the structures.

The target in test [1] is T1, CRACM3 (Homo sapiens, UniProt Q9BRQ5). The method, then: (§1) To assess the functional properties of CRACM proteins, all three CRACM species were overexpressed in HEK293 cells. CRAC currents were measured in response to rapid Ca2+ store depletion by 20 μM inositol 1,4,5-trisphosphate (IP3) as well as following passive store depletion by perfusing cells with 20 mM BAPTA, which results in a slower store depletion that relies on Ca2+ leaking from stores. Full length human CRACM1 (accession no. NM_032790) and CRACM1-E106Q were subcloned as described. Full length human CRACM2 (accession no. NM_032831) and CRACM3 (accession no. NM_152288) were amplified from cDNAs (purchased from Origene) using high fidelity Pfu Ultra High Fidelity polymerase (Stratagene) and subcloned into pCAGGS-IRES-GFP vector. […] CRACM proteins were over-expressed in HEK293 cells stably expressing STIM1 using lipofectamine 2000 (Invitrogen) and the GFP expressing cells were selected by fluorescence.
(§2) Patch-clamp experiments were performed in the tight-seal whole-cell configuration at 21-25° C. High-resolution current recordings were acquired using the EPC-9 (HEKA). Voltage ramps of 50 ms duration spanning a range of −150 to +150 mV were delivered from a holding potential of 0 mV at a rate of 0.5 Hz over a period of 100-300 sec. All voltages were corrected for a liquid junction potential of 10 mV. Currents were filtered at 2.9 kHz and digitized at 100 μs intervals. Capacitive currents were determined and corrected before each voltage ramp. Extracting the current amplitude at −80 mV from individual ramp current records assessed the low-resolution temporal development of currents. Where applicable, statistical errors of averaged data are given as means± S.E.M. with n determinations. Standard external solutions were as follows (in mM): 120 NaCl, 2 MgCl2, 10 CaCl2, 10 TEA-Cl, 10 HEPES, 10 glucose, pH 7.2 with NaOH, 300 mOsm. In some experiments, Na^+-free solutions were applied, where NaCl was replaced equimolarly by tetraethylammonium-chloride (TEA-Cl). For Ca^2+-free external solutions CaCl2 was omitted, but Mg^2+ was retained. The divalent-free external solution (DVF) was based on the standard external solution but in the absence of CaCl2 and MgCl2 and additionally supplemented with 10 mM EDTA. Divalent replacement solutions were based on the standard external solution but with 10 mM CaCl2 replaced by 10 mM BaCl2. […] Standard internal solutions were as follows (in mM): 120 Cs-glutamate, 20 Cs-BAPTA, 3 MgCl2, 10 HEPES, 0.02 IP3, pH 7.2 with CsOH, 300 mOsm. In the experiments of FIG. 2, 10 mM EGTA was used and in FIG. 3, [Ca^2+]i was buffered to defined levels using 20 mM Cs-BAPTA and appropriate concentrations of CaCl2 as calculated with WebMaxC. For passive-depletion experiments, IP3 was omitted from the internal solution. All chemicals were purchased from Sigma-Aldrich Co.
Normally, CRAC currents are highly Ca^2+-selective and poorly permeable to K^+ or Cs^+, resulting in positive reversal potentials.
The monovalent versus divalent cation permeation was investigated in ion substitution experiments, where either Ca^2+ was removed from the extracellular solution or Na^+ was replaced by TEA.

In a further test the target is CRACM1 (Homo sapiens, UniProt Q96D31). To be noted: without STIM1 overexpression. The procedure:
as §1, with “described.” for “described. Full length human CRACM2 (accession no. NM_032831) and CRACM3 (accession no. NM_152288) were amplified from cDNAs (purchased from Origene) using high fidelity Pfu Ultra High Fidelity polymerase (Stratagene) and subcloned into pCAGGS-IRES-GFP vector.”
(§3) Patch-clamp experiments were performed in the tight-seal whole-cell configuration at 21-25° C. […] Capacitive currents were determined and corrected before each voltage ramp. Extracting the current amplitude at −80 mV from individual ramp current records assessed the low-resolution temporal development of currents. […] In the experiments of FIG. 2, 10 mM EGTA was used and in FIG. 3, [Ca^2+]i was buffered to defined levels using 20 mM Cs-BAPTA and appropriate concentrations of CaCl2 as calculated with WebMaxC. […]

The target of a further test is CRACM2 (Homo sapiens, UniProt Q96SN7). To be noted: 50 μM 2-APB. The procedure: as §1, with “described.” for “described. Full length human CRACM2 (accession no. NM_032831) and CRACM3 (accession no. NM_152288) were amplified from cDNAs (purchased from Origene) using high fidelity Pfu Ultra High Fidelity polymerase (Stratagene) and subcloned into pCAGGS-IRES-GFP vector.”
as §3

The target in another test is CRACM1-E106D (Homo sapiens, UniProt Q96D31, E106D). The procedure: as §2
Another test addresses CRACM1-E190A (Homo sapiens, UniProt Q96D31, E190A). The method, then:
as §2

For test [2], the target named is T1, CRACM3. The procedure:
Patch-clamp experiments were performed in the tight-seal whole-cell configuration at 21-25° C. High-resolution current recordings were acquired using the EPC-9 (HEKA). Voltage ramps of 50 ms duration spanning a range of −150 to +150 mV were delivered from a holding potential of 0 mV at a rate of 0.5 Hz over a period of 100-300 sec. All voltages were corrected for a liquid junction potential of 10 mV. Currents were filtered at 2.9 kHz and digitized at 100 μs intervals. Capacitive currents were determined and corrected before each voltage ramp. Extracting the current amplitude at −80 mV from individual ramp current records assessed the low-resolution temporal development of currents. Where applicable, statistical errors of averaged data are given as means± S.E.M. with n determinations. Standard external solutions were as follows (in mM): 120 NaCl, 2 MgCl2, 10 CaCl2, 10 TEA-Cl, 10 HEPES, 10 glucose, pH 7.2 with NaOH, 300 mOsm. In some experiments, Na^+-free solutions were applied, where NaCl was replaced equimolarly by tetraethylammonium-chloride (TEA-Cl). For Ca^2+-free external solutions CaCl2 was omitted, but Mg^2+ was retained. […] In the experiments of FIG. 2, 10 mM EGTA was used and in FIG. 3, [Ca^2+]i was buffered to defined levels using 20 mM Cs-BAPTA and appropriate concentrations of CaCl2 as calculated with WebMaxC. […]
This is another data set of the same source.

Setting [3] is: 50 μM 2-APB, 0 Ca Sodium Ringer.

Chain of CRACM1-E190A (Q96D31 whole entry E190A): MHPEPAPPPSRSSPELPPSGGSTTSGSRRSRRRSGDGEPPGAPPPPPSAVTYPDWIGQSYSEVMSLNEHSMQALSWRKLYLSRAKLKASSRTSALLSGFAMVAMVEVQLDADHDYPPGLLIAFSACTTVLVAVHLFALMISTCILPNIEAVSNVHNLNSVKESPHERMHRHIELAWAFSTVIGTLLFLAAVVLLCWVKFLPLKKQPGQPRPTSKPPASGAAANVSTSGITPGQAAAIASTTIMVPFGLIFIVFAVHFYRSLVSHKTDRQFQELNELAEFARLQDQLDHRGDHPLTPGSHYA
Chain of CRACM1-E106D (Q96D31 whole entry E106D): as the sequence (Q96D31 whole entry E190A) above, with E106D, A190E counted along it
Chain of CRACM1 (Q96D31 whole entry): as the sequence (Q96D31 whole entry E190A) above, with A190E counted along it
Chain of CRACM2 (Q96SN7 whole entry): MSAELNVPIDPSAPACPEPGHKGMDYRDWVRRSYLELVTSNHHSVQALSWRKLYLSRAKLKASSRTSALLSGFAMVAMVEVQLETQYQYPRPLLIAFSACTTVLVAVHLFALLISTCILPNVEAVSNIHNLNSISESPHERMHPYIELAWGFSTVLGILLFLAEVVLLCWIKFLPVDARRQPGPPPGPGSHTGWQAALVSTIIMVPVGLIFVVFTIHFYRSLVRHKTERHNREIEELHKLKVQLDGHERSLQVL

Consider `NCCOB(c1ccccc1)c1ccccc1` [2-APB, 2-aminoethoxydiphenyl borate], for which, at CRACM3 [1] (setting [3]), the “Change of outward current on 2-APB application in Ca2+-free extracellular solution” value is “nearly tripled” and the “Reduction of average inward current on 2-APB application in Ca2+-free extracellular solution versus Ca2+-containing solutions” value is listed as 53%. Moreover, on CRACM3 [1] (50 μM 2-APB, 0 Ca Sodium Ringer, shift from +94 mV), the “Reversal potential with 2-APB in Ca2+-free extracellular solution” value is “+10 mV”. Further, the “Effect of replacing extracellular Na+ with TEA+ on inward or outward currents induced by 2-APB” value on CRACM3 [1] (50 μM 2-APB, 10 mM Ca TEA Ringer) is given as “no significant effect”. Besides, at CRACM3 [1] (50 μM 2-APB, IP3, K+-based internal solution), the “Reversal potential after 2-APB application, internal K+” value worked out at 29 mV. The “Average 2-APB-mediated current compared to CRACM3 currents without STIM1 overexpression” value on CRACM3 [1] (50 μM 2-APB, STIM1 cells with CRACM3) was “approximately twice as large”. Also, the “Reversal potential with 2-APB in 10Ca/TEA Ringer” value at CRACM3 [1] (50 μM 2-APB, red I/V of FIG. 6G) is reported as “+30 mV”. Moreover, on CRACM3 [1] (Goldman-Hodgkin-Katz analysis, 10Ca/TEA Ringer (red I/V), +30 mV), the “Permeability ratio PCs/PCs in presence of 2-APB” value was found to be 50. In addition, at CRACM3 [1] (Goldman-Hodgkin-Katz analysis, Ca2+-free conditions, Erev=+10 mV), the “Permeability ratio PNs/PCs in presence of 2-APB” value is 1.5. For the same compound, the “Permeability ratio PCa/PNa in presence of 2-APB” value at CRACM3 [1] (Goldman-Hodgkin-Katz analysis, normally in excess of 100-fold) came to 33. Also, the “Store- and STIM1-independent gating of wild-type CRACM1 by 2-APB” value on CRACM1 was “largely resistant”. Besides, the “Sensitivity of CRACM2 to 2-APB-mediated inhibition (versus CRACM1)” value on CRACM2 was “significantly less sensitive”. For the same compound, the “Response of CRACM1-E106D expressed alone to 2-APB” value at CRACM1-E106D (50 μM 2-APB, [Ca2+]i 150 nM, no STIM1) was “rapid increase in inward current, followed by complete block, and a slow reactivation”. In addition, the “Reversal potential of the reactivated current after 2-APB” value on CRACM1-E106D (CRACM1-E106D alone, +16 mV for the mutant without 2-APB) was determined as 0 mV. The “Response of CRACM1-E190A co-expressed with STIM1 to 2-APB” value on CRACM1-E190A (50 μM 2-APB after IP3-induced CRAC currents fully activated) is “large facilitation followed by rapid inhibition”. The “Response of CRACM1-E190A expressed alone, without STIM1, to 2-APB” value at CRACM1-E190A (50 μM 2-APB, wild-type HEK293, no IP3, [Ca2+]i ~150 nM) was “large, transient increase in both inward and outward current”. The “Reversal potential of the 2-APB-facilitated current” value on CRACM1-E190A (CRACM1-E190A with STIM1, 50 μM 2-APB, +55 mV before 2-APB) is recorded as “+33 mV”. Moreover, the “Current with 2-APB administered intracellularly” value at CRACM3 [2] (50 μM 2-APB in pipette solution, [Ca2+]i ~150 nM) was “no store-operated or 2-APB induced current was elicited”. Moreover, on CRACM3 [2] (50 μM 2-APB, CRACM3 alone, FIG. 6D), the “Reversal potential of the 2-APB-evoked CRACM3 current” value is “+30 mV”.
